From patent US10208007B2, “Use of strigolactones and strigolactone analogs for treating proliferative conditions” (The State of Israel, Ministry of Agriculture & Rural …, priority 2011, dated 2019) come the findings set out here.

One series relates to pERK1/2. The experiment in a line: Immunoblot with densitometric quantification. In kind it is cell-based, human. The conditions noted are these: DU145, after 1 hour. How it is done:
(§1) Protein concentration was determined using the BCA Protein Assay (Pierce), and 20-50 μg of lysate were separated in a 4-12% SDS-PAGE gel. After transfer, membranes were blocked for 15-30 min at room temperature in 5% BSA (Sigma) in Tris-buffered saline containing 0.1% Tween-20. Primary antibody was incubated for either 1.5 hours at room temperature or overnight at 4° C. Secondary antibody was incubated for 30-45 min at room temperature, and proteins were visualized with West Pico Stable (Pierce). All antibodies were used at 1:1000 dilution unless otherwise stated. pT308AKT, AKT, pT180/Y182, pT183/Y185 P38MAPK, pP38MAPK, pT202/Y204 pERK1/2, ERK1, pT183/Y185, pJNK1/2, JNK1, pT71ATF2, pT581MSK1, pT14 Cdc2, Cdc2, pT68Chk2 (cell signaling), pT334MAPKAPK, pS82HSP27 (Cell Signaling Technology, Danvers, Mass.), α-tubulin (Biomarkers, 1:50,000), Cyclin B1 (Santa Cruz Biotechnologies) and horseradish peroxidase-conjugated anti-rabbit IgG and anti-mouse IgG (1:5,000, Pierce).
(§2) Densitometric quantifications were carried out using ImageJ software (NIMH).
(§3) To investigate the signaling mechanisms elicited by strigolactone analogs in cancer cells, MDA-MB-231, DU145 and HCT116 cells were treated with strigolactone analogs for 1, 4 or 8 hours and lysates were analyzed by immuno-blotting. The family of MAPK enzymes plays a pivotal role in cell growth, survival and cellular stress responses. The best characterized MAPKs fall into three families: (i) the mitogen activated extracellular signal regulated kinases (ERK1/2) which are activated in response to positive proliferation signals, (ii) c-Jun amino (N)-terminal kinases (JNK1/2/3) and (iii) p38 isoforms (p38α, β, γ, δ), all are activated by environmental stress stimuli such as DNA damage, UV irradiation and inflammatory cytokines.

For a further series, the system named is JNK1/2 phosphorylation. The series is described as follows: Immunoblot with densitometric quantification. It counts as cell-based, human. How it is done: as §1, §2, §3
Another series deals with Candida oleophila. The series is described as follows: Yeast cell culture growth (OD). It counts as cell-based. The conditions noted are these: 10 μM, apparent 8 hours after application. Here is the method: Saccharomyces cerevisiae and Candida oleophila yeast cells were grown overnight in a reach nutrient media at 28° C., at 150 rpm. Following, they were diluted to 0.4 OD in low nutrient media (Lily) and were divided into 96 wells. The cells were treated with GR-24 or ST-362, at the indicated concentrations. Cell culture growth was monitored every hour for 17 hours, at 28° C., with gentle shake before each OD read. OD was determined using fluorometer. Statistical differences between curves were analyzed using compareGrowthCurves function from the Statistical Modeling package, statmod (http://bioinf.wehi.edu.au/software/compareCurves/), significance was determined once P≤0.05.

For another series, the system named is MCF-7 cells. The series is described as follows: Stability in aqueous solution (media, activity on MCF-7 by XTT). It counts as physicochemical, human. The conditions noted are these: stored at 4° C. for 3 days. How it is done: To assess strigolactone analogs stability in aqueous solution, each strigolactone analog was diluted to the desired concentration in media and stored at 4° C. for 3 days, at which time the strigolactone analog containing media was overlayed onto MCF-7 cells seeded into 96 well plates in phenol free DMEM supplemented with 5% charcoal stripped serum. After 3 days growth and viability was assessed (XTT, ATCC) and results compared to cells treated with freshly diluted strigolactone analog (FIG. 15) (absorbance readings presented as % of controls. Average+SD). […] For this reason all strigolactone analogs were diluted fresh from acetone stocks into media to desired concentrations and overlayed onto cells within 1 hour. Where necessary, media was refreshed every 3 days.

The test system of a further series is MDA-MB-436. The series is described as follows: Cell cycle analysis (propidium iodide, flow cytometry). It counts as cell-based, human. The conditions noted are these: 10 ppm, 48 hours. Here is the method: (§4) Adherent cells were trypsinyzed, washed twice with PBS and filtered through a […] cell sieve. DNA content was assessed by flow cytometry. Cells were seeded at densities of 1.5×10^5 cells (MDA-MB-231, MDA-MB-436), or 4×10^5 cells (MCF-7 and MCF10A), or 2×10^5 cells (SW480, HT-29), or 5×10^5 cells (HCT116), per well in DMEM with 10% FBS in 6-well plate culture dishes. […] After 48 hours, cells were washed twice with PBS (pH 7.4), centrifuged at 360 g for 10 minutes at 4° C., and fixed in chilled ethanol (70%; v/v in PBS) with gentle vortex mixing. To determine their DNA contents, the cells were stained with 40 μg/ml propidium iodide (hereinafter PI) and analyzed using a FACSCalibur flow cytometer and CellQuest analysis software (Becton Dickinson, San Jose, Calif.). Where phosphoHistone-H3 staining was carried out, cells were incubated with polyclonal antibody against phosphoHistone H3 and then with secondary Goat anti-rabbit IgG-conjugated to FITC prior to PI staining.

A further series has as its system MCF-7. The series is described as above. In kind it is cell-based, human. The conditions noted are these: 10 ppm, 48 hours. Here is the method:
as §4

The next series has as its system ALDH1. The series is described as follows: Aldefluor ALDH expression. The conditions noted are these: MCF-7 primary mammospheres; reduced from 6%. In kind it is cell-based, human. How it is done:
MCF-7 mammospheres were trypsinized, gently vortexed and passed through a 40 uM cell filter to produce single cell suspensions. Cells (5×10^5) were washed and re-suspended in growth media (Lonza). To identify the Aldefluor-stained cell population with ALDH1 enzymatic activity, the Aldefluor kit (Stem Cell Technologies), which is designed for optimal identification and isolation of stem cells through specific interaction with human ALDH1 was used. Briefly, cells were suspended in Aldefluor assay buffer containing uncharged ALDH1-substrate, BODIPY-aminoacetaldehyde (BAAA), and incubated for 45 min at 37° C., with gently vortexing every 15 min. BAAA is taken up by living cells through passive diffusion and then converted by intracellular ALDH into a negatively charged reaction product BODIPY-aminoacetate, which is retained inside cells expressing high levels of ALDH1, causing the cells to become brightly fluorescent. Fluorescent ALDH1-expressing cells were detected in the green fluorescence channel (520-540 nm) of a FACScan instrument (BD Biosciences). […] PI (Sigma) fluorescence was detected using the orange fluorescence channel. Cells incubated with BAAA and DEAB were used to establish the baseline fluorescence of cells and ALDH1-positive fraction. Data were analyzed by using Cell Quest software (BD Biosciences). […]

Molecules are shown by their SMILES.

`CC1=CC(O/C=C2\Cc3c(n(C)c4cc(-c5cccs5)ccc34)C2=O)OC1=O` (racemic) [MEB-55, (±) 2E-4-methyl-2-(4-methyl-5-oxo-2,5-dihydrofuran-2-yloxymethylene)-6-thiophen-2-yl-1,4-dihydro-2H-cyclopenta[b]indol-3-one] displayed a pERK1/2 levels reduction in the series on pERK1/2 of 4 fold. The molecule further had a JNK1/2 phosphorylation increase in the series with JNK1/2 phosphorylation (DU145, 4 hours) of 15 fold. The “Decrease of JNK1/2 phosphorylation from the 4 hours level” value with JNK1/2 phosphorylation (DU145, 8 hours) turned out to be 50%.

Regarding `CC1=CC(O/C=C2/C(=O)c3c(c4cc(-c5scc6c5OCCO6)ccc4n3C)C2C)OC1=O` (centres unmarked) [ST-362, (2E)-2-[(2,5-dihydro-4-methyl-5-oxofuran-2-yloxy)methylene]-1,2-dihydro-7-(2,3-dihydrothieno[3,4-b][1,4]dioxin-7-yl)-1,4-dimethyl-cyclopenta[b]indole-3-(4H)-one], the Cell culture growth result in the series on Candida oleophila was “reduction of cell culture growth”.

Consider `CC1=CC(O/C=C2\Cc3c(n(C)c4ccccc34)C2=O)OC1=O` (racemic) [EG-5, (±) (2E)-4-methyl-2-(4-methyl-5-oxo-2,5-dihydrofuran-2-yloxymethylene)-1,4-dihydro-2H-cyclopenta[b]indol-3-one], for which the “Stability in aqueous solution: activity versus freshly diluted analog” value in the series on MCF-7 cells is “completely failed to inhibit MCF-7 growth”.

In the case of `CC1=C[C@H](O/C=C2/C(=O)O[C@@H]3c4ccccc4C[C@H]23)OC1=O` (relative stereo) [GR-24, (3aR*,8bS*,E)-3-(((R*)-4-methyl-5-oxo-2,5-dihydrofuran-2-yloxy)methylene)-3,3a,4,8b-tetrahydro-2H-indeno[1,2-b]furan-2-one], in the series with MDA-MB-436, the “Increase in the sub-G1/apoptotic fraction compared to vehicle” value is recorded as 3.4 fold. The “Change in the subG1 fraction” value in the series on MCF-7 was “no change”. The “ALDH activity (ALDH positive cells) after treatment” value in the series on ALDH1 is reported as 2%.
